In patent US20170298314A1, “NANO-DROPLET PLATE” (Research Foundation of the City University of New York, priority 2016, published 2017):

Tested on: HEK 293 cells
Assay: Penetration of FAM-labeled cell permeable peptide into HEK 293 cells in alginate gel drops, CLSM imaging
Assay type: cell-based, Human
Conditions: 15 μg/mL, 5 mins incubation, 1% w/v alginate, 63× oil immersion lens
Experimental: High resolution observation of reactions between peptides and cells. Not only should proteins and peptides diffuse through the gel, they should also be able to react with cells, for drug screening applications. […] Sodium alginate solution (1% w/v) was mixed with a HEK 293 cell suspension and used as a source solution for single dispensing on 750 μm diameter nDAP anvils using a single robotically controlled rod. The alginate was cured with 1% calcium chloride for 5 min. […] The holder was filled with medium and imaged using a confocal microscope (CLSM). After the cells were imaged, a 15 μg/mL solution of (Arg)9 was introduced using a syringe, displacing the medium. […] The holder enables observation of single cells at high resolution while permitting the exchange of solutions without interfering with the gel anchor on the nDAPs.

(Arg)9
penetration into HEK 293 cells through gel: Two cells with cell permeable protein were clearly seen
